# Assays:
# Format in all cases: in vivo
# [1] = tested on: upland rice (Oryza sp., var.Tebonnet, RICE); experiment: Pre-emerge greenhouse test, crop damage rating; conditions: 14 days after application, rating scale 0-100
# How it was run: (§1)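 Seeds sown in sandy loam mix one day before track-sprayer application of compounds in acetone at 125–1000 g ai/ha (187 l/ha), then surface-watered to incorporate and bottom-watered. Visual rating 14 days after application on a 0–100 scale (0 = no damage, 100 = all plants dead).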
# [2] = tested on: field corn (Zea mays L., var. Dekalb 535, CORN); experiment: Pre-emerge greenhouse test, crop damage rating; conditions: 14 days after application, rating scale 0-100
# How it was run: as §1
# [3] = tested on: ivyleaf morningglory (Ipomoea hederacea, IPOHE); experiment: Pre-emerge greenhouse herbicide test, phytotoxicity rating; conditions: 14 days after application, rating scale 0-100
# How it was run: as §1
# [4] = tested on: common ragweed (Ambrosia artemisiifolia L., AMBEL); experiment: as above; conditions: 14 days after application, rating scale 0-100
# How it was run: as §1
# [5] = tested on: velvetleaf (Abutilon theophrasti, ABUTH); experiment: as above; conditions: 14 days after application, rating scale 0-100
# How it was run: as §1
# [6] = tested on: lambsquarters (Chenopodium album, CHEAL); experiment: as above; conditions: 14 days after application, rating scale 0-100
# How it was run: as §1
# [7] = tested on: sicklepod (Cassia obtusifolia, CASOB); experiment: as above; conditions: 14 days after application, rating scale 0-100
# How it was run: as §1
# [8] = tested on: green foxtail (Setaria viridis, SETVI); experiment: as above; conditions: 14 days after application, rating scale 0-100
# How it was run: as §1
# [9] = tested on: Johnsongrass (Sorghum halepense, SORHA); experiment: as above; conditions: 14 days after application, rating scale 0-100
# How it was run: as §1
# [10] = tested on: large crabgrass (Digitaria sanguinalis, DIGSA); experiment: as above; conditions: 14 days after application, rating scale 0-100
# How it was run: as §1
# [11] = tested on: barnyardgrass (Echinochloa crusgalli, ECHCG); experiment: as above; conditions: 14 days after application, rating scale 0-100
# How it was run: as §1
# [12] = tested on: redroot pigweed (Amaranthus retroflexus, AMARE); experiment: as above; conditions: 14 days after application, rating scale 0-100
# How it was run: as §1
# [13] = tested on: ivyleaf morningglory (Ipomoea hederacea, IPOHE); experiment: Post-emerge greenhouse herbicide test, phytotoxicity rating; conditions: 14 days after application
# How it was run: (§2)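 Compounds in acetone with 0.25% v/v non-ionic surfactant were track-sprayed at 187 l/ha over plants at the 2-3 leaf stage, at 63 to 1000 g ai/ha. Pots were bottom-watered. Injury was scored visually 14 days later on a 0-100 scale, where 0 is no damage and 100 is complete plant death.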
# [14] = tested on: velvetleaf (Abutilon theophrasti, ABUTH); experiment: as above; conditions: 14 days after application
# How it was run: as §2
# [15] = tested on: lambsquarters (Chenopodium album, CHEAL); experiment: as above; conditions: 14 days after application
# How it was run: as §2
# [16] = tested on: sicklepod (Cassia obtusifolia, CASOB); experiment: as above; conditions: 14 days after application
# How it was run: as §2
# [17] = tested on: green foxtail (Setaria viridis, SETVI); experiment: as above; conditions: 14 days after application
# How it was run: as §2
# [18] = tested on: Johnsongrass (Sorghum halepense, SORHA); experiment: as above; conditions: 14 days after application
# How it was run: as §2
# [19] = tested on: large crabgrass (Digitaria sanguinalis, DIGSA); experiment: as above; conditions: 14 days after application
# How it was run: as §2
# [20] = tested on: barnyardgrass (Echinochloa crusgalli, ECHCG); experiment: as above; conditions: 14 days after application
# How it was run: as §2
# [21] = tested on: redroot pigweed (Amaranthus retroflexus, AMARE); experiment: as above; conditions: 14 days after application
# How it was run: as §2
# [22] = tested on: soybean (Glycine max L., var. Pella 86, SOY); experiment: Post-emerge greenhouse test, crop damage rating; conditions: 14 days after application
# How it was run: as §2
# [23] = tested on: upland rice (Oryza sp., var.Tebonnet, RICE); experiment: Post-emerge greenhouse test, crop damage rating; conditions: 14 days after application
# How it was run: as §2
# [24] = tested on: field corn (Zea mays L., var. Dekalb 535, CORN); experiment: Post-emerge greenhouse test, crop damage rating; conditions: 14 days after application
# How it was run: as §2
# [25] = tested on: soybean (Glycine max L., var. Pella 86, SOY); experiment: Pre-emerge greenhouse test, crop damage rating; conditions: 14 days after application, rating scale 0-100
# How it was run: as §1
# [26] = tested on: common ragweed (Ambrosia artemisiifolia L., AMBEL); experiment: Post-emerge greenhouse herbicide test, phytotoxicity rating; conditions: 14 days after application
# How it was run: as §2
compound,measurement,setting,value
O=c1n(CCCF)nnn1-c1cc(Oc2ncc(Br)cn2)c(Cl)cc1F [Compound 6-16],crop damage rating RICE,[1]; 125 g ai/ha,0
same,crop damage rating RICE,[1]; 500 g ai/ha,50
same,crop damage rating CORN,[2]; 125 g ai/ha,0
same,crop damage rating CORN,[2]; 500 g ai/ha,15
same,phytotoxicity rating IPOHE,[3]; 125 g ai/ha,50
same,phytotoxicity rating IPOHE,[3]; 500 g ai/ha,30
same,phytotoxicity rating AMBEL,[4]; 125 g ai/ha,0
same,phytotoxicity rating AMBEL,[4]; 500 g ai/ha,70
same,phytotoxicity rating ABUTH,[5]; 125 g ai/ha,100
same,phytotoxicity rating ABUTH,[5]; 500 g ai/ha,100
same,phytotoxicity rating CHEAL,[6]; 125 g ai/ha,100
same,phytotoxicity rating CHEAL,[6]; 500 g ai/ha,100
same,phytotoxicity rating CASOB,[7]; 125 g ai/ha,50
same,phytotoxicity rating CASOB,[7]; 500 g ai/ha,30
same,phytotoxicity rating SETVI,[8]; 125 g ai/ha,80
same,phytotoxicity rating SETVI,[8]; 500 g ai/ha,100
same,phytotoxicity rating SORHA,[9]; 125 g ai/ha,40
same,phytotoxicity rating SORHA,[9]; 500 g ai/ha,80
same,phytotoxicity rating DIGSA,[10]; 125 g ai/ha,80
same,phytotoxicity rating DIGSA,[10]; 500 g ai/ha,100
same,phytotoxicity rating ECHCG,[11]; 125 g ai/ha,0
same,phytotoxicity rating ECHCG,[11]; 500 g ai/ha,90
same,phytotoxicity rating AMARE,[12]; 125 g ai/ha,100
same,phytotoxicity rating AMARE,[12]; 500 g ai/ha,100
same,IPOHE phytotoxicity rating (0-100),[13]; 63 g al/ha,95
same,IPOHE phytotoxicity rating (0-100),[13]; 500 g al/ha,95
same,ABUTH phytotoxicity rating (0-100),[14]; 63 g al/ha,100
same,ABUTH phytotoxicity rating (0-100),[14]; 500 g al/ha,100
same,CHEAL phytotoxicity rating (0-100),[15]; 63 g al/ha,80
same,CHEAL phytotoxicity rating (0-100),[15]; 500 g al/ha,100
same,CASOB phytotoxicity rating (0-100),[16]; 63 g al/ha,0
same,CASOB phytotoxicity rating (0-100),[16]; 500 g al/ha,30
same,SETVI phytotoxicity rating (0-100),[17]; 63 g al/ha,20
same,SETVI phytotoxicity rating (0-100),[17]; 500 g al/ha,50
same,SORHA phytotoxicity rating (0-100),[18]; 63 g al/ha,0
same,SORHA phytotoxicity rating (0-100),[18]; 500 g al/ha,20
same,DIGSA phytotoxicity rating (0-100),[19]; 63 g al/ha,0
same,DIGSA phytotoxicity rating (0-100),[19]; 500 g al/ha,0
same,ECHCG phytotoxicity rating (0-100),[20]; 63 g al/ha,0
same,ECHCG phytotoxicity rating (0-100),[20]; 500 g al/ha,30
same,AMARE phytotoxicity rating (0-100),[21]; 63 g al/ha,70
same,AMARE phytotoxicity rating (0-100),[21]; 500 g al/ha,100
same,SOY crop damage rating (0-100),[22]; 63 g al/ha,40
same,SOY crop damage rating (0-100),[22]; 500 g al/ha,60
same,RICE crop damage rating (0-100),[23]; 63 g al/ha,30
same,RICE crop damage rating (0-100),[23]; 500 g al/ha,40
same,CORN crop damage rating (0-100),[24]; 63 g al/ha,10
same,CORN crop damage rating (0-100),[24]; 500 g al/ha,20
same,crop damage rating SOY,[25]; 125 g ai/ha,0
same,crop damage rating SOY,[25]; 500 g ai/ha,10
same,AMBEL phytotoxicity rating (0-100),[26]; 63 g al/ha,15
same,AMBEL phytotoxicity rating (0-100),[26]; 500 g al/ha,20
